Read-outs that look alike come from different tables or passages of the source.
Columns and labels:
[1] = target: rat recombinant 11β-HSD1 (Rattus norvegicus (Rat), UniProt P16232); experiment: Measurement test for rat 11β-HSD1 inhibitory activity (HTRF cortisol detection); format: biochemical; settings: rat recombinant 11β-HSD1, 200 nM cortisone, 40 μM NADPH, pH 6.6, room temperature 1 hour
Experimental: The procedure for measuring the 11β-HSD1-inhibitory activity is as follows. The enzyme reaction and the measurement were carried out using a 384-well plate. The enzyme was prepared in accordance with Journal of Biological Chemistry, 2001, Vol. 276, p. 21343-21350. The reaction was carried out by adding a test compound at various concentrations to a reaction liquid consisting of a 5 mM phosphate buffer (pH 6.6), 200 nM cortisone, 40 μM reduced nicotinamide adenine dinucleotide phosphate (NADPH), and rat recombinant 11β-HSD1, followed by incubating at room temperature for one hour (10 μl/well). The test compound was prepared by dissolving in dimethyl sulfoxide (DMSO) such that a DMSO concentration reached 1% in the reaction liquid. After the enzyme reaction was completed, the enzyme inhibitory action was measured by detecting cortisol using a homogeneous time-resolved fluorescence (HTRF) method. Each of a d2-labeled cortisol containing 400 μM carbenoxolone and a cryptate-labeled cortisol antibody (CIS Bio International Co., Ltd.) was added at 5 μl/well, followed by incubating at room temperature for 2 hours, and then the fluorescence intensity was measured using a fluorophotometer (trade name: ARVO HTS 1420, Perkin Elmer/Wallac), and the enzyme inhibitory activity was calculated from the fluorescence intensity ratio of two wavelengths (665 nm/620 nm).
The measurement results were calculated by averaging the values of 3 wells of the same condition. The ratio when DMSO was added instead of the test compound was taken as 0% and the ratio when 11β-HSD1 was not added was taken as 100%, thereby calculating the 50% inhibition concentration of the test compound as IC50 of the compound inhibitory activity.

[2] = tested on: spinal nerve ligation model; experiment: Test of spinal nerve ligation model (von Frey hair test); format: in vivo, rat; settings: read-out: Improvement rate % (dose)
Experimental: The test was carried out in accordance with Pain, 1992, Vol. 50, p. 355-363. The lumbar skin and muscle of a rat (SD, male, 5- to 6-week old) were incised under pentobarbital anesthesia and the transverse processes of lumbar L6 were removed to expose lumbar nerves. The L5 and L6 spinal nerves were ligated with silk thread and then the wound was sutured. The treatment was performed on the left side. However, in a case of a pseudo-operation, the wound was sutured without carrying out the nerve ligation.
Drug efficacy evaluation was carried out by a von Frey hair test 7 to 20 days after the operation. The withdrawal response threshold was calculated in accordance with Journal of Neuroscience Methods, 1994, Vol. 53, p. 55-63. The plantar of hindlimb was stimulated using 8 kinds of von Frey filaments (0.41 to 15.14 g), and 50% withdrawal response thresholds were determined by an up-and-down method. The test was initiated from 2.04 g of the filament, and a case where the withdrawal response of the limb was observed was taken as presence of the response.
On the previous day of the drug efficacy evaluation, the animals showing reduction in the thresholds according to a von Frey hair test were preliminarily selected and grouped such that the difference in the average values of the thresholds between the respective groups was reduced.
The test substance was suspended in a 0.5% methylcellulose solution and administered orally 2 hours before the drug efficacy evaluation. The evaluation of the test substance was carried out by determining the improvement rate of the group administered with the test substance when the threshold of the limb on the treatment side in the pseudo-operation animal group was taken as 100% and the threshold of the limb on the treatment side in an operated animal group administered with a solvent was taken as 0%.

[3] = tested on: fibromyalgia model induced by repeated administration of reserpine; experiment: Test of fibromyalgia model induced by repeated administration of reserpine (muscle pressure pain threshold); format: in vivo; settings: 1 mg/kg oral, maximum among 30, 60 and 120 min after administration, normal rat = 100%, reserpine + solvent = 0%, SD rat
Experimental: The test was carried out in accordance with Pain, 2009, Vol. 146, p. 26-33. Rats (SD, male, 7 weeks old) were used.
The threshold measurement for the muscle pressure pain was carried out according to the method of Schafers et al. (Pain, 2003, Vol. 104, p. 579-588). The pressure stimulus gradually increasing up to 250 g was applied to the gastrocnemius muscle of the right hindlimb of the rat. […] The measurements were carried out in triplicate for each point of time and the average thereof was taken as a measured value.
A solvent (0.5% acetic acid/water) or reserpine at 1 mg/kg was subcutaneously administered on a dorsal subcutaneous part for 3 days once per day. The administration volume of the solvent or reserpine was taken as 1 mL per kg of a body weight of an animal. The muscle pressure pain thresholds of the respective rats were measured at 6 days after the initiation of the administration of the solvent or reserpine, and grouped such that the difference in the average values of the thresholds between the respective groups was reduced.
The drug efficacy evaluation was carried out the next day. The test substance was suspended in a 0.5% methylcellulose solution and the muscle pressure pain thresholds were measured 30, 60, and 120 minutes after oral administration. For the normal rats, drug administration was not carried out, and only the measurement of the muscle pressure pain thresholds was carried out. […] The evaluation of the test substance was carried out by determining the maximal improvement rate of the group administered with the test substance among at time points of 30, 60, and 120 minutes after the administration when the muscle pressure pain threshold of the normal rat is taken as 100% and the muscle pressure pain threshold of the rat treated with reserpine while administered with the solvent is taken as 0%.

[4] = 0.3 mg/kg oral, 2 hours before evaluation, 50% withdrawal response threshold, pseudo-operation group = 100%, operated solvent group = 0%, SD rat

Sequence of rat recombinant 11β-HSD1 (P16232 whole entry): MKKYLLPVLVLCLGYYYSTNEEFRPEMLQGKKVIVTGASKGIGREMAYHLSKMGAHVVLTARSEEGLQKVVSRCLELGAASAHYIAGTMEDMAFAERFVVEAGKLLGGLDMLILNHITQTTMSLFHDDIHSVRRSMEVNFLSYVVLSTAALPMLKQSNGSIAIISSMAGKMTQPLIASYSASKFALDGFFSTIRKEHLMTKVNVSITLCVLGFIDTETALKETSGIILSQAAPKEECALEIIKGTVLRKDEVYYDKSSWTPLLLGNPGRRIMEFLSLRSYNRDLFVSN

SMILES	IC50 [1] [µM]	inhibition in vivo at 0.3 mg/kg [2, 4] [%]	Maximum improvement rate % (dose) [3]	inhibition in vivo at 0.3 mg/kg ([2]; Rattus norvegicus, po, 2 h) [%]
Cn1c(-c2ccc(F)cc2Cl)nnc1C(C)(C)Oc1c(F)cc(F)cc1F [Compound 2]	–	–	30 (1 mg/kg) %	88
Cn1c(-c2ccc(F)cc2Cl)nnc1C(C)(C)Oc1c(F)cc(Cl)cc1F [Compound 5]	0.263	65	–	–
Cn1c(-c2ccccc2F)nnc1C(C)(C)Oc1c(F)cc(F)cc1F [Compound 6]	0.322	52	–	–
CCn1c(-c2ccc(C(N)=O)cc2)nnc1C(C)(C)Oc1c(F)cc(Cl)cc1F [Compound 8]	–	–	41 (1 mg/kg) %	87
Cn1c(-c2ccc(C(N)=O)cc2F)nnc1C(C)(C)Oc1c(F)cc(Cl)cc1F [Compound 10]	–	81	65 (1 mg/kg) %	–
CC(C)n1c(-c2ccc(C(N)=O)cc2F)nnc1C(C)(C)Oc1c(F)cc(F)cc1F [Compound 15]	–	–	45 (1 mg/kg) %	86

Continued, in another order:

IC50 [1] [µM]	SMILES	inhibition in vivo at 0.3 mg/kg [2, 4] [%]	Maximum improvement rate % (dose) [3]	inhibition in vivo at 0.3 mg/kg ([2]; Rattus norvegicus, po, 2 h) [%]
0.035	Cn1c(-c2ccc(F)cc2Br)nnc1C(C)(C)Oc1c(F)cc(F)cc1F [Compound 1]	71	–	–
0.024	Cn1c(-c2ccccc2Cl)nnc1C(C)(C)Oc1c(F)cc(F)cc1F [Compound 3]	62	–	–
0.032	Cl.Cn1c(-c2ccccc2Cl)nnc1C(C)(C)Oc1c(F)cc(Cl)cc1F [Compound 4]	85	82 (1 mg/kg) %	–
0.032	Cn1c(-c2c[nH]nc2C(F)(F)F)nnc1C(C)(C)Oc1c(F)cc(F)cc1F [Compound 7]	73	–	–
0.026	CC(C)n1c(-c2ccc(C(N)=O)cc2)nnc1C(C)(C)Oc1c(F)cc(F)cc1F [Compound 9]	78	–	–
0.064	CC(C)(Oc1ccc(F)cc1F)c1nnc(-c2ccc(C(N)=O)cc2F)n1C1CC1 [Compound 11]	82	83 (1 mg/kg) %	–
0.182	Cn1c(-c2ccc(C(N)=O)cc2F)nnc1C(C)(C)Oc1c(F)cc(F)cc1F [Compound 12]	54	–	–
0.068	CC(C)n1c(-c2ccc(C(N)=O)cc2)nnc1C(C)(C)Oc1c(F)cc(Cl)cc1F [Compound 13]	53	–	–
0.016	CC(C)(Oc1ccc(F)cc1F)c1nnc(-c2ccc(C(N)=O)cc2Cl)n1C1CC1 [Compound 14]	73	–	–

— US9765040B2, “Therapeutic agent for pain” (Astellas Pharma Inc., priority 2010, dated 2017)
